# Results: US20080248548A1, “MODULATION OF PROTEIN FUNCTIONALITIES” (priority 2007, published 2008)
# Molecular target: T1, p38 MAP kinase (Homo sapiens, UniProt Q16539)
# T1 construct: made in house; host or cells: E. coli
# Experiment: P38 MAP kinase binding assay (competition with fluorescent probe SKF 86002)
# Conditions: inhibition assigned as time-dependent if the IC50 values decrease with the reaction time (more than two-fold in four hours)
# Method: Thus, the ability of a small molecule to block fluoroprobe binding provides an experimental readout of binding to the switch control pocket. […] The reaction was initiated by addition of the enzyme. […] By comparison of rfu (relative fluorescence unit) values with that of a control (in the absence of small molecule modulators), the percentage of inhibition at each concentration of the small molecules were calculated. IC50 values for the small molecule modulators were calculated from the % inhibition values obtained at a range of concentrations of the small molecule modulators using Prism. When time-dependent inhibition was assessed, the plate was read at multiple reaction times such as 0.5, 1, 2, 3, 4 and 6 hours. The IC50 values were calculated at each time point. An inhibition was assigned as time-dependent if the IC50 values decrease with the reaction time (more than two-fold in four hours).
# T1 sequence (Q16539 whole entry): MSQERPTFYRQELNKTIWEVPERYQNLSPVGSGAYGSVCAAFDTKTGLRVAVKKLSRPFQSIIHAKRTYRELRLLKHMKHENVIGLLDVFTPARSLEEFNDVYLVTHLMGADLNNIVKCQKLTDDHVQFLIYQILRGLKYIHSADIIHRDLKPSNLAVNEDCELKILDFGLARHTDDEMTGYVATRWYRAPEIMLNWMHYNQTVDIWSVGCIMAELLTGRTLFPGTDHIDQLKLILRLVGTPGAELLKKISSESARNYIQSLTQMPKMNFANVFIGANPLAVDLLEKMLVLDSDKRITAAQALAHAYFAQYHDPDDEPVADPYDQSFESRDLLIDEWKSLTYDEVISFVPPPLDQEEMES
row,Time-dependent,Structure (SMILES)
1,No,CC1(C(=O)O)CC2(C)CC(C)(C1)C(=O)N(Cc1cccc(-n3nc(C(C)(C)C)cc3NC(=O)Nc3cccc4ccccc34)c1)C2=O (stereo not shown) [Example 11]
2,No,CC1(C(=O)O)CC2(C)CC(C)(C1)C(=O)N(Cc1cccc(-n3nc(C(C)(C)C)cc3NC(=O)Nc3ccc(Cl)cc3)c1)C2=O (stereo not shown) [Example 12]
3,Yes,"CC(C)(C)c1cc(NC(=O)Nc2cccc3ccccc23)n(-c2cccc(CC(=O)N3CCOCC3)c2)n1 [Example 21, 1-{3-tert-butyl-1-[3-(2-morpholino-2-oxoethyl)phenyl)-1H-pyrazol-5-yl}-3-(naphthalene-1-yl)urea]"
4,No,"CC(C)(C)c1cc(NC(=O)Nc2cccc3ccccc23)n(-c2ccc(CN)cc2)n1 [Example 45, 1-{3-tert-butyl-1-[4-(aminomethyl)phenyl]-1H-pyrazol-5-yl}-3-(naphthalen-1-yl)urea]"
